Laboratory results from patent publication US20140364417A1, “METHOD OF TREATING ATRIAL FIBRILLATION” (Gilead Sciences, Inc., priority 2013, published 2014).
Several values for one entry are separate records, joined by “and”; a condition that tells them apart may be missing. Equal values may be shown once. Entries after “also recorded” stand apart in the source; their conditions may differ.

Tests used:
[1] = Plasma level determination by LC/MS/MS in pigs; format: in vivo; conditions: pig; at the time of testing combined administration with ivabradine
Experimental: Blood samples were collected in sodium heparin tubes at 0 and 30 minutes following ranolazine bolus administration and at 0, 15, and 30 minutes after ivabradine bolus administration. The samples were centrifuged and frozen at −80° C. until drug level determination was performed. Concentrations of ivabradine and ranolazine in plasma were determined at Gilead Sciences, Inc. (Foster City Calif.). Plasma was analyzed using a high-performance liquid chromatography-tandem mass spectrometric assay (LC/MS/MS). The quantification limit of ivabradine was 4 nM (1.87 ng/mL). The dynamic range of quantification was 4-10 000 nM (1.87-4686 ng/mL). Ranolazine and an internal standard were extracted with the protein precipitation extraction method. The dynamic range of quantification for ranolazine was 45.8-23,400.

[2] = test system: male Yorkshire pigs; assay: Hemodynamic changes in pigs: sinus rate, mean arterial pressure, left ventricular dP/dt; format: in vivo; conditions: for sinus rate after drug: at the time of electrical testing, ivabradine 0.25 mg/kg, before drug 111±4.0 (ivabradine) and 105±5.7 (ranolazine, combination)
Experimental: (§1) Data were gathered from male Yorkshire pigs (n=16) weighing 35±2 kg (mean±SEM). The animals were preanesthetized with telazol (4.7 mg/kg, intramuscularly) and then anesthetized with alpha-chloralose (100 mg/kg, i.v., bolus followed by 40 mg/kg/h, i.v., continuous infusion). The animals were intubated and ventilation was maintained between 10-16 breaths/min with volumes between 400-500 mL. Vital signs including core body temperature, heart rate, and oxygen saturation were continuously monitored.
(§2) The right and left femoral veins were cannulated with 7Fr introducer sheaths using the Seldinger technique to insert catheters in the right atrial (RA) appendage for pacing and for positioning the intrapericardial catheter. Arterial blood pressure was continuously monitored from a femoral arterial sheath, and intravenous fluids were administered through the ear vein. The electrocardiogram (ECG) was recorded with a Prucka Cardiolab workstation (GE Medical Systems, Milwaukee, Wis.) from atrial and ventricular sites.
(§3) Ranolazine was given as a 2.4 mg/kg, i.v., bolus followed by continuous infusion of 0.135 mg/kg/min, i.v.
(§4) A nonsteerable, quadripolar electrode catheter (Bard Electrophysiology, Lowell Mass.) was placed in the right atrium (RA) via the femoral vein and a second quadripolar electrode catheter in the right ventricle via the jugular vein. A bipolar electrode was placed in the non-coronary cusp of the aorta through the left carotid artery to record the His bundle electrogram. A pigtail catheter was inserted in the left ventricle via the left femoral artery to record and calculate contractility [left ventricular dP/dt]. Transatrial access was employed to deliver acetylcholine (ACh) into the pericardial space. Specifically, a small puncture was made in the RA appendage with the stiff end of a coronary angioplasty guidewire (0.014-inch Wizdom guidewire, Cordis, Miami, Fla., USA) placed within the lumen of a soft infusion catheter (0.038-inch SOS straight-tip, open-ended angiographic guidewire, Bard Electrophysiology). This wire-within-wire system was advanced as a unit into an 8Fr multipurpose guide catheter (MP2, Boston Scientific, Boston Mass.) previously positioned in the RA appendage via a femoral vein under fluoroscopic guidance and into the pericardial space. The infusion catheter was left in the pericardial space for delivery of ACh and the inner guidewire was removed. Conformation of the infusion catheter on fluoroscopy to the curvature of the heart verified its location within the pericardial space. All of the pericardial fluid was then aspirated with the infusion catheter. Intrapericardial access is associated with a hematocrit <2%, indicating minimum trauma from the atrial puncture (Kumar et al., J Cardiovasc Electrophysiol 2009; 20:796-802). The presence of acetylcholinesterase can rapidly degrade ACh and prevent a sustained response to this neurotransmitter.
The statistical tests were carried out with a SAS statistical package (SAS Institute, Cary, N.C.). Effects on electrophysiologic properties were determined by repeated measures analysis of variance (ANOVA) followed by post-hoc t-tests with Bonferroni correction for multiple comparisons. For mean arterial pressure, heart rate, and dominant frequency during atrial fibrillation, we used paired t-tests to compare effects of agents to baseline. All data are reported as mean±SEM, with P<0.05 considered significant.

[3] = test system: atrial and ventricular myocardium; conditions: cited from earlier work
[4] = test system: male Yorkshire pigs; assay: A-H, H-V, PR and QT intervals during right atrial pacing in anesthetized pigs; format: in vivo; conditions: for increase in PR interval: ivabradine 0.25 mg/kg, 30 min after ivabradine administration; for effect on atrial-His (A-H) interval: right atrial pacing at 180 beats/min, FIG. 6 left panel; for effect on atrial-His (A-H) interval / effect on PR interval: ivabradine 0.25 mg/kg bolus; for effect on PR interval: right atrial pacing at 180 bpm, FIG. 5 upper panel
Experimental: as §1, §2, §3, §4
The electrical stimulation protocol described below was performed in the control state and after the ivabradine bolus and after ranolazine administration and the combination of ranolazine and ivabradine. Burst pacing was performed after ACh injection into the pericardium and AF was invariably elicited. Ventricular rate during AF was determined by counting the R waves during the 6th minute of AF. Two episodes of AF separated by 10 min were induced to establish control levels.
A Bloom stimulator (Bloom Associates, Reading Pa.) was used to deliver constant-current rectangular stimuli for fixed-rate pacing as well as for delivering premature stimuli. To elicit AF, a burst pacing stimulation with a cycle length of 200 msec was performed. A-H, His-ventricular (H-V), PR and QT interval measurements were made during right atrial pacing at 130 and 180 beats/min.
The statistical tests were carried out with a SAS statistical package (SAS Institute, Cary, N.C.). […]

[5] = Reffelmann and Kloner 2010; Verrier et al 2013; cited from earlier work
[6] = test system: AV node and ventricular Purkinje system; conditions: ivabradine 0.2 mg/kg, i.v., cited from earlier work
[7] = ivabradine 0.25 mg/kg i.v., ranolazine 2.4 mg/kg bolus + 0.135 mg/kg/min, pacing 130 beats/min
[8] = larger series, ivabradine 0.25 mg/kg i.v., ranolazine 2.4 mg/kg bolus + 0.135 mg/kg/min, pacing 180 beats/min, FIG. 6
[9] = pacing 130 beats/min, ranolazine 2.4 mg/kg bolus + 0.135 mg/kg/min
[10] = pacing 180 beats/min, ranolazine 2.4 mg/kg bolus + 0.135 mg/kg/min
[11] = pacing rate 180 beats/min, FIG. 2 (first series)

Structure (SMILES): COc1ccccc1OCC(O)CN1CCN(CC(=O)Nc2c(C)cccc2C)CC1 (racemic) [ranolazine, (±)-N-(2,6-dimethylphenyl)-4-[2-hydroxy-3-(2-methoxyphenoxy)-propyl]-1-piperazineacetamide]
- plasma level of ranolazine [1]: 9.8 ± 1.5 µM
- sinus rate after drug [2]: 96±3.9 beats/min
- effect on left ventricular (LV) dP/dt (contractility) ([2]; pig, in vivo): not altered
- effect on mean arterial pressure during sinus rhythm ([2]; pig, in vivo): Neither ivabradine nor ranolazine given separately altered
- dominant frequency of AF ([3]; Kumar et al. 2009): capable of reducing
- APD in ventricular myocardium ([3]; clinically relevant concentrations (5 and 10 μM)): minimal or no effect
- duration of the action potential (APD90) in atria ([3]; published studies): prolongs
- increase in A-H interval [4, 7]: 2.0 ± 2.6 ms
- increase in A-H interval [4, 8]: 13.8 ± 3.9 ms
- HV interval after drug ([4]; male, Yorkshire, pig, in vivo): 35 ms
- QT interval after drug ([4]; male, Yorkshire, pig, in vivo): 282 ms
- increase in PR interval [4, 9]: 5 ± 1.8 ms
- increase in PR interval [4, 10]: 19 ± 2.8 ms
- increase in A-H interval [4, 11]: 18 ms and 18.4 ms
- A-H interval after drug ([4]; representative experiment FIG. 7, pacing 180 beats/min, before drug 100 msec, ranolazine, then ivabradine 0.25 mg/kg): 107 ms
- PR interval after drug ([4]; representative experiment FIG. 7, pacing 180 beats/min, before drug 123 msec): 131 ms
- effect on atrial-His (A-H) interval [4]: did not
- effect on PR interval [4]: increased PR interval
- steady-state plasma therapeutic concentration [5]: 2 to 8 µM

Structure (SMILES): COc1cc2c(cc1OC)CC(=O)N(CCCN(C)C[C@H]1Cc3cc(OC)c(OC)cc31)CC2 [ivabradine, 3-{3-[{[(7S)-3,4-dimethoxybicyclo[4.2.0]octa-1,3,5-trien-7-yl]methyll}-(methyl)amino]propyl}-7,8-dimethoxy-1,3,4,5-tetrahydro-2H-3-benzapenin-2-one]
- left ventricular (LV) dP/dt after drug ([2]; at 30 min after drug, pacing at 180 beats/min, baseline 2156±647.4 (ivabradine) and 1864±109.1 (ranolazine, combination)): 2342±486.5 mmHg/sec
- sinus rate after drug [2]: 90±3.3 beats/min
- effect on mean arterial pressure during sinus rhythm ([2]; drugs given separately): Neither ivabradine nor ranolazine given separately altered
- effect on left ventricular (LV) dP/dt (contractility) ([2]; pacing at 180 beats/min): not altered
- increase in A-H interval [4, 7]: 15.5 ms
- increase in A-H interval [4, 8]: 22.0 ± 3.5 ms
- increase in PR interval [4, 9]: 16 ± 3.9 ms
- increase in PR interval [4, 10]: 20 ± 3.5 ms
- increase in A-H interval [4, 11]: 31 ms and 31.2 ms
- effect on QT interval ([4]; right atrial pacing at 130 and 180 beats/min, FIG. 5 lower panel): not altered; also recorded: neither drug nor their combination altered QT interval
- effect on His-ventricular (H-V) interval ([4]; right atrial pacing at 130 and 180 beats/min, FIG. 6 right panel): unchanged; also recorded: neither drug nor their combination altered His-ventricular (H-V) interval
- effect on atrial-His (A-H) interval [4]: increased atrial-His (A-H) interval
- effect on PR interval [4]: increased PR interval
- heart rate ([6]; Thollon 1997, Camm and Lau 2003): lowers heart rate
- conductivity, refractoriness or repolarization duration of AV node and ventricular Purkinje system [6]: without causing changes
